# What was measured:
# α-galactosidase [1] = test system: T1, α-galactosidase; test: initial rate of hydrolysis, Lineweaver-Burk; type: biochemical, Fusarium verticillioides; details: citrate phosphate buffer pH 5.0, 50 °C (standard assay); read-out: apparent Km
# T1 construct: gene EC 3.2.1.22; single band 57 kDa on SDS-PAGE; optimum pH 4.0
# α-galactosidase [2] = test system: T1, α-galactosidase; test: initial rate of hydrolysis, p-nitrophenol release at […] nm, Lineweaver-Burk; type: biochemical, Fusarium verticillioides; details: citrate phosphate buffer pH 5.0, 50 °C (standard assay); read-out: apparent Km
Compound,Km (α-galactosidase [1]),Km (α-galactosidase [2])
OC[C@H]1O[C@H](OC[C@H]2OC(O)[C@H](O)[C@@H](O)[C@@H]2O)[C@H](O)[C@@H](O)[C@H]1O (stereo partly drawn) [melibiose],1360 µM,
O=[N+]([O-])c1ccc(O[C@H]2O[C@H](CO)[C@H](O)[C@H](O)[C@H]2O)cc1 [p-nitrophenyl-α-D-galactopyranoside],,200 µM
OC[C@H]1O[C@H](OC[C@H]2O[C@H](O[C@]3(CO)O[C@H](CO)[C@@H](O)[C@@H]3O)[C@H](O)[C@@H](O)[C@@H]2O)[C@H](O)[C@@H](O)[C@H]1O [raffinose],3660 µM,

# — PMC5148754, “Response surface methodology-based optimization of production media and purification of α-galactosidase in solid-state fermentation by Fusarium moniliforme NCIM 1099” (3 Biotech, 2016)
